# pIC50: −log10 of the molar value. Activity calls are given as the source filed them. No cut-off for these calls is given here.
# System: Mus musculus
# Experiment: Anti-inflammatory activity in Swiss albino mouse model of carrageenan-induced-paw edema assessed as inhibition of paw edema at 5 mg/kg, ip after 3 hrs
# Type: functional
# Settings: not given
row,Structure (SMILES),inhibition in vivo at 5 mg/kg [%]
1,O=C1COCCN1c1ccc(Nc2nc(Cl)nc(Nc3ccc(Cl)cc3)n2)cc1,28
2,Cc1ccc(-c2cc(C(F)(F)F)nn2-c2ccc(S(N)(=O)=O)cc2)cc1 [CELECOXIB],33
3,O=C1COCCN1c1ccc(Nc2nc(Cl)nc(N3CCCC3)n2)cc1,38

# System: Mus musculus
# Experiment: Analgesic activity in ip dosed Swiss albino mouse assessed as inhibition of acetic acid-induced writhings measured 30 mins post acetic acid challenge
# Type: functional
# Settings: 0.5 h
row,Structure (SMILES),ED50 [mg/kg]
1,O=C1COCCN1c1ccc(Nc2nc(Cl)nc(Nc3ccc(Cl)cc3)n2)cc1,1.9
2,O=C1COCCN1c1ccc(Nc2nc(Cl)nc(N3CCCC3)n2)cc1,2.2

# System: Mus musculus
# Experiment: Analgesic activity in substance P pre-treated Swiss albino mouse assessed as inhibition of acetic acid-induced writhings at 5 mg/kg, ip measured 30 mins post acetic acid challenge
# Type: functional, organism-based
# Settings: not given
row,Structure (SMILES),Activity
1,O=C1COCCN1c1ccc(Nc2nc(Cl)nc(N3CCCC3)n2)cc1,inactive

# System: Mus musculus
# Experiment: Acute toxicity in Swiss albino mouse assessed as induction of behavioural impairment at 50 to 2000 mg/kg, po measured over 14 days post dose
# Type: organism-based
# Settings: in vivo, 336 h
row,Structure (SMILES),Activity
1,O=C1COCCN1c1ccc(Nc2nc(Cl)nc(N3CCCC3)n2)cc1,Non-Toxic

# System: Mus musculus
# Experiment: Analgesic activity in Swiss albino mouse assessed as inhibition of acetic acid-induced writhings at 10 mg/kg, ip measured 30 mins post acetic acid challenge
# Type: functional
# Settings: 0.5 h
row,Structure (SMILES),inhibition in vivo at 10 mg/kg [%]
1,Nc1nc(Cl)nc(Nc2ccc(N3CCOCC3=O)cc2)n1,74
2,O=C1COCCN1c1ccc(Nc2nc(Cl)nc(Nc3ccccc3)n2)cc1,83
3,O=C1COCCN1c1ccc(Nc2nc(Cl)nc(Nc3ccc(Cl)cc3)n2)cc1,90.2
4,O=C1COCCN1c1ccc(Nc2nc(Cl)nc(N3CCCC3)n2)cc1,93
5,O=C1COCCN1c1ccc(Nc2nc(Cl)nc(Nc3ccc(O)cc3)n2)cc1,68
6,O=C1COCCN1c1ccc(Nc2nc(Cl)nc(NC3CCCCC3)n2)cc1,81
7,COc1ccc(Nc2nc(Cl)nc(Nc3ccc(N4CCOCC4=O)cc3)n2)cc1,79
8,COc1ccc2c(c1)c(CC(=O)O)c(C)n2C(=O)c1ccc(Cl)cc1 [INDOMETHACIN],63

# Target: T1, Prostaglandin G/H synthase 2 (Homo sapiens) (UniProt P35354)
# T1 sequence (whole entry): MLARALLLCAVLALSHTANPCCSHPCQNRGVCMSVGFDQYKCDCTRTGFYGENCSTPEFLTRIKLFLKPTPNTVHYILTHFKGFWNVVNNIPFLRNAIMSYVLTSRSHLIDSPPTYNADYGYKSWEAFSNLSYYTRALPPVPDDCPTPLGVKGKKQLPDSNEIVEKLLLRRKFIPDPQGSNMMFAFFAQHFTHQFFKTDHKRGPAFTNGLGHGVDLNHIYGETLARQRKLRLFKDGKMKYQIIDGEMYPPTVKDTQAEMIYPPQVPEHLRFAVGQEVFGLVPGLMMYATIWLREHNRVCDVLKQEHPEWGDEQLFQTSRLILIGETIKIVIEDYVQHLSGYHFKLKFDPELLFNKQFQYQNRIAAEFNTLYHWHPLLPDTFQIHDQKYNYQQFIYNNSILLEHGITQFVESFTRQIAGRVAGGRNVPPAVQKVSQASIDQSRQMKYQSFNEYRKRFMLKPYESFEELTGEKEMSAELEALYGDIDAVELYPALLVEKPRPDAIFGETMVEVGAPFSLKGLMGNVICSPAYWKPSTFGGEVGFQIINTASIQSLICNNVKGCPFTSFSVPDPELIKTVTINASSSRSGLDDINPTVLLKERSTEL
# Settings: not given
row,Structure (SMILES),Ka [×10⁵ /M]
1,O=C1COCCN1c1ccc(Nc2nc(Cl)nc(N3CCCC3)n2)cc1,5.37

# Target: T2, Prostaglandin G/H synthase 1 (Ovis aries, UniProt P05979)
# T2 sequence (P05979 whole entry): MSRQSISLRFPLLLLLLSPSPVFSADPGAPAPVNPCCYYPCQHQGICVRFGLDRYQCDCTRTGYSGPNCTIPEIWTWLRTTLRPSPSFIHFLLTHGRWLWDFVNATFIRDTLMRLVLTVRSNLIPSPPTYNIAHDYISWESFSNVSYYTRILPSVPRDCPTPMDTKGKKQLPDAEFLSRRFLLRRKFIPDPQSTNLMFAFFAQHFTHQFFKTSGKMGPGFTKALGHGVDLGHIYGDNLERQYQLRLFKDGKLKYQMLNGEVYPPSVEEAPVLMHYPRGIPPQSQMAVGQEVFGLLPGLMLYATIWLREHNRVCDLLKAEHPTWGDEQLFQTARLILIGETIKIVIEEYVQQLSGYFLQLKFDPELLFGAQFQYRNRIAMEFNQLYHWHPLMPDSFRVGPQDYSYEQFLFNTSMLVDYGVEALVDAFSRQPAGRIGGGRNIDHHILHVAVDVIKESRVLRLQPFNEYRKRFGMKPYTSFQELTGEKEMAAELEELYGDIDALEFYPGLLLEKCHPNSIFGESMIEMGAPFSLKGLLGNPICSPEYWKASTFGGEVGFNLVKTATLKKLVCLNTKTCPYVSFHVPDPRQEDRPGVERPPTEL
# Experiment: Inhibition of ovine COX1 pre-incubated for 10 mins before arachidonic acid addition and measured after 2 mins by EIA method
# Settings: not given
row,Structure (SMILES),pIC50
1,Nc1nc(Cl)nc(Nc2ccc(N3CCOCC3=O)cc2)n1,< 5.00
2,O=C1COCCN1c1ccc(Nc2nc(Cl)nc(Nc3ccccc3)n2)cc1,< 5.00
3,[N-]=[N+]=NCCOc1nc(Cl)nc(Nc2ccc(N3CCOCC3=O)cc2)n1,< 5.00
4,O=C1COCCN1c1ccc(Nc2nc(Cl)nc(OCCCl)n2)cc1,< 5.00
5,COC(=O)C(N)Cc1ccc(Oc2nc(Cl)nc(Nc3ccc(N4CCOCC4=O)cc3)n2)cc1 (stereo not given),< 5.00
6,O=C1COCCN1c1ccc(Nc2nc(Cl)nc(Nc3ccc(Cl)cc3)n2)cc1,< 5.00
7,O=C1COCCN1c1ccc(Nc2nc(Cl)nc(N3CCCC3)n2)cc1,5.00
8,O=C1COCCN1c1ccc(Nc2nc(Cl)nc(Nc3ccc(O)cc3)n2)cc1,5.00
9,O=C1COCCN1c1ccc(Nc2nc(Cl)nc(NC3CCCCC3)n2)cc1,< 5.00
10,COc1ccc(Nc2nc(Cl)nc(Nc3ccc(N4CCOCC4=O)cc3)n2)cc1,< 5.00

# System: Mus musculus
# Experiment: Acute toxicity in Swiss albino mouse assessed as induction of mortality at 50 to 2000 mg/kg, po measured over 14 days post dose
# Type: organism-based
# Settings: in vivo, 336 h
row,Structure (SMILES),Activity
1,O=C1COCCN1c1ccc(Nc2nc(Cl)nc(N3CCCC3)n2)cc1,Non-Toxic

# System: Mus musculus
# Experiment: Acute toxicity in Swiss albino mouse assessed as induction of myocardial lesions at 50 to 2000 mg/kg, po measured over 14 days post dose by H and E staining based microscopy
# Type: organism-based
# Settings: in vivo, 336 h
row,Structure (SMILES),Activity
1,O=C1COCCN1c1ccc(Nc2nc(Cl)nc(N3CCCC3)n2)cc1,Non-Toxic

# System: Mus musculus
# Experiment: Acute toxicity in Swiss albino mouse assessed as induction of hepatic lesions at 50 to 2000 mg/kg, po measured over 14 days post dose by H and E staining based microscopy
# Type: organism-based
# Settings: in vivo, 336 h
row,Structure (SMILES),Activity
1,O=C1COCCN1c1ccc(Nc2nc(Cl)nc(N3CCCC3)n2)cc1,Non-Toxic

# System: Mus musculus
# Experiment: Analgesic activity in […] pre-treated Swiss albino mouse assessed as inhibition of acetic acid-induced writhings at 5 mg/kg, ip measured 30 mins post acetic acid challenge
# Type: functional, organism-based
# Settings: not given
row,Structure (SMILES),inhibition
1,O=C1COCCN1c1ccc(Nc2nc(Cl)nc(N3CCCC3)n2)cc1,Active

# System: Mus musculus
# Experiment: Acute toxicity in Swiss albino mouse assessed as induction of mesangium shrinkage at 50 to 2000 mg/kg, po measured over 14 days post dose by H and E staining based microscopy
# Type: organism-based
# Settings: in vivo, 336 h
row,Structure (SMILES),Activity
1,O=C1COCCN1c1ccc(Nc2nc(Cl)nc(N3CCCC3)n2)cc1,Toxic

# System: Mus musculus
# Experiment: Acute toxicity in Swiss albino mouse assessed as induction of congestion in renal tissue at 50 to 2000 mg/kg, po measured over 14 days post dose by H and E staining based microscopy
# Type: organism-based
# Settings: in vivo, 336 h
row,Structure (SMILES),Activity
1,O=C1COCCN1c1ccc(Nc2nc(Cl)nc(N3CCCC3)n2)cc1,Toxic

# Target: T1, Prostaglandin G/H synthase 2 (Homo sapiens)
# Settings: 10 uM
row,Structure (SMILES),Ka [×10⁵ /M]
1,O=C1COCCN1c1ccc(Nc2nc(Cl)nc(N3CCCC3)n2)cc1,2.54

# System: Mus musculus
# Experiment: Acute toxicity in Swiss albino mouse assessed as induction of renal lesions at 50 to 2000 mg/kg, po measured over 14 days post dose by H and E staining based microscopy
# Type: organism-based
# Settings: in vivo, 336 h
row,Structure (SMILES),Activity
1,O=C1COCCN1c1ccc(Nc2nc(Cl)nc(N3CCCC3)n2)cc1,Non-Toxic

# System: Mus musculus
# Experiment: Acute toxicity in Swiss albino mouse assessed as induction of increase in capsular space at 50 to 2000 mg/kg, po measured over 14 days post dose by H and E staining based microscopy
# Type: organism-based
# Settings: in vivo, 336 h
row,Structure (SMILES),Activity
1,O=C1COCCN1c1ccc(Nc2nc(Cl)nc(N3CCCC3)n2)cc1,Toxic

# System: Mus musculus
# Experiment: Analgesic activity in Swiss albino mouse assessed as inhibition of acetic acid-induced writhings at 5 mg/kg, ip measured 30 mins post acetic acid challenge
# Type: functional
# Settings: 0.5 h
row,Structure (SMILES),inhibition in vivo at 5 mg/kg [%]
1,Nc1nc(Cl)nc(Nc2ccc(N3CCOCC3=O)cc2)n1,67
2,O=C1COCCN1c1ccc(Nc2nc(Cl)nc(Nc3ccccc3)n2)cc1,76
3,O=C1COCCN1c1ccc(Nc2nc(Cl)nc(Nc3ccc(Cl)cc3)n2)cc1,79
4,Cc1ccc(-c2cc(C(F)(F)F)nn2-c2ccc(S(N)(=O)=O)cc2)cc1 [CELECOXIB],62
5,O=C1COCCN1c1ccc(Nc2nc(Cl)nc(N3CCCC3)n2)cc1,87
6,O=C1COCCN1c1ccc(Nc2nc(Cl)nc(Nc3ccc(O)cc3)n2)cc1,56
7,O=C1COCCN1c1ccc(Nc2nc(Cl)nc(NC3CCCCC3)n2)cc1,56
8,COc1ccc(Nc2nc(Cl)nc(Nc3ccc(N4CCOCC4=O)cc3)n2)cc1,47

# Target: T3, Polyunsaturated fatty acid 5-lipoxygenase (Homo sapiens, UniProt P09917)
# T3 sequence (P09917 whole entry): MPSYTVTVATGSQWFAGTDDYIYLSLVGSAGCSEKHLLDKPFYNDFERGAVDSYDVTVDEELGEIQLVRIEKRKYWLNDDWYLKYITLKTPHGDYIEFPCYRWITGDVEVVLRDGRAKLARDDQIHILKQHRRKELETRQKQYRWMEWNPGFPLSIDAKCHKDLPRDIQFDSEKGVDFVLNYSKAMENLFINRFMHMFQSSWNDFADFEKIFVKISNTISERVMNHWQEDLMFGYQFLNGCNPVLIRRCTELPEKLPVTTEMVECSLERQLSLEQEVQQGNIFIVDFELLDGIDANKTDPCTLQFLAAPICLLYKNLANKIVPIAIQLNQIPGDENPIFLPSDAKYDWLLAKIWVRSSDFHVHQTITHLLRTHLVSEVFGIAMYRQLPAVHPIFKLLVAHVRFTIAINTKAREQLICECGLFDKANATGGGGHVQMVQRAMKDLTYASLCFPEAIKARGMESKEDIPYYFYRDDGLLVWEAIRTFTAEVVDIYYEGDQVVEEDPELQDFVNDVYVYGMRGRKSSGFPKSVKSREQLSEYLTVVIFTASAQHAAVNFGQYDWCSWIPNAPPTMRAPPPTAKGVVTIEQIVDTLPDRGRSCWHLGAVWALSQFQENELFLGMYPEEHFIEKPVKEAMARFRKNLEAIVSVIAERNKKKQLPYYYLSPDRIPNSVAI
# Experiment: Inhibition of 5-LOX (unknown origin)
# Settings: not given
row,Structure (SMILES),pIC50
1,O=C1COCCN1c1ccc(Nc2nc(Cl)nc(N3CCCC3)n2)cc1,< 5.00

# Target: Prostaglandin G/H synthase 1 (Homo sapiens, UniProt P23219)
# Experiment: Inhibition of COX1 in human whole blood assessed as A23187-stimulated TxB2 production at 1 uM pre-incubated for 60 mins before A23187 addition and measured after 30 mins by ELISA (reference value: 2 ng/ml)
# Settings: 0.5 h
# Prostaglandin G/H synthase 1 (Homo sapiens, UniProt P23219), sequence (P23219 whole entry): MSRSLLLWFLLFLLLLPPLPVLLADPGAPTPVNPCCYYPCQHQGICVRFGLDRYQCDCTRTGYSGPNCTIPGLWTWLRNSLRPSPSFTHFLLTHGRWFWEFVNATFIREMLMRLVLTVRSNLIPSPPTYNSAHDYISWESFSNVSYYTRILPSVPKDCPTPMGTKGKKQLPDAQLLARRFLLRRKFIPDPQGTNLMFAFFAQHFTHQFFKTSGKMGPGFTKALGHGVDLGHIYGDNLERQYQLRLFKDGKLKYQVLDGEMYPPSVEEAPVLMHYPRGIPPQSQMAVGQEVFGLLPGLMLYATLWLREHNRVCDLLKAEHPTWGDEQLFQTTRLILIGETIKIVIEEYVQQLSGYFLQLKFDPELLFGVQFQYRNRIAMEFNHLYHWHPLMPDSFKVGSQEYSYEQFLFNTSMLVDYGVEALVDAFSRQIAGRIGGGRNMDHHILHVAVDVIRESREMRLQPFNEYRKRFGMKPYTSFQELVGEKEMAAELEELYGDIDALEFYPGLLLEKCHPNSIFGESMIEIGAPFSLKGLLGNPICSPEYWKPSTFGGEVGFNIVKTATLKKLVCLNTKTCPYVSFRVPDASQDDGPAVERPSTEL
row,Structure (SMILES),Activity [ng/mL]
1,Nc1nc(Cl)nc(Nc2ccc(N3CCOCC3=O)cc2)n1,1.68
2,O=C1COCCN1c1ccc(Nc2nc(Cl)nc(Nc3ccccc3)n2)cc1,1.7
3,O=C1COCCN1c1ccc(Nc2nc(Cl)nc(Nc3ccc(Cl)cc3)n2)cc1,1.85
4,O=C1COCCN1c1ccc(Nc2nc(Cl)nc(N3CCCC3)n2)cc1,1.9
5,O=C1COCCN1c1ccc(Nc2nc(Cl)nc(Nc3ccc(O)cc3)n2)cc1,1.64

# System: Mus musculus
# Experiment: Anti-inflammatory activity in Swiss albino mouse model of carrageenan-induced-paw edema assessed as inhibition of paw edema at 10 mg/kg, ip after 3 hrs
# Type: functional
# Settings: not given
row,Structure (SMILES),inhibition in vivo at 10 mg/kg [%]
1,COc1ccc2c(c1)c(CC(=O)O)c(C)n2C(=O)c1ccc(Cl)cc1 [INDOMETHACIN],30

# From ChEMBL document CHEMBL4145689, “Tailoring the Substitution Pattern on 1,3,5-Triazine for Targeting Cyclooxygenase-2: Discovery and Structure-Activity Relationship of Triazine-4-Aminophenylmorpholin-3-one Hybrids that Reverse Algesia and Inflammation in Swiss Albino Mice” (J Med Chem, 2018)
